The record followed here is patent US10533010B2, “Substituted indole Mcl-1 inhibitors” (Vanderbilt University, priority 2014, dated 2020).

The experiment addresses recombinant Mcl-1 (residues 172-327) (Homo sapiens (Human), UniProt Q07820). Nature of the experiment: Fluorescence polarization anisotropy competition assay (FITC-Bak or FITC-Bim BH3 peptide) with Mcl-1. The class given is binding. The note with it: Table 2; Ki bins given in nM; FITC-Bak or FITC-Bim peptide competition; Ki converted from IC50; read-out: Ki for Inhibition of Mcl-1.

Chain of recombinant Mcl-1 (residues 172-327) (Q07820 172-327): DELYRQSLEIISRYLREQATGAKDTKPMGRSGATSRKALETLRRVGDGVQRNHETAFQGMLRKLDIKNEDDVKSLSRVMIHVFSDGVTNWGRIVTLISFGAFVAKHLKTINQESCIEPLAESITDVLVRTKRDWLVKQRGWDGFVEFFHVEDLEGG

As for `Cc1cc(OCCCc2c3n(c4c(-c5c(C)nn(C)c5C)c(Cl)ccc24)C(C)[C@@H](C)N(c2ccc(C(=O)O)c4ncccc24)C3=O)cc(C)c1Cl` (stereo partly drawn) [I-164, 5-((3R)-7-chloro-10-(3-(4-chloro-3,5-dimethylphenoxy)propyl)-3,4-dimethyl-1-oxo-6-(1,3,5-trimethyl-1H-pyrazol-4-yl)-3,4-dihydropyrazino[1,2-a]indol-2(1H)-yl)quinoline-8-carboxylic acid], the Ki was in the range of 51 to 100 nM. Consider `Cc1cc(OCCCc2c3n(c4c(-c5c(C)nn(C)c5C)c(Cl)ccc24)[C@@H](C)CN(c2cccc(C(=O)O)c2)C3=O)cc(C)c1Cl` [I-165, (S)-3-(7-chloro-10-(3-(4-chloro-3,5-dimethylphenoxy)propyl)-4-methyl-1-oxo-6-(1,3,5-trimethyl-1H-pyrazol-4-yl)-3,4-dihydropyrazino[1,2-a]indol-2(1H)-yl)benzoic acid], for which the inhibition constant (Ki) is below 50 nM. Take `Cc1cc(OCCCc2c3n(c4c(-c5c(C)nn(C)c5C)c(Cl)ccc24)[C@@H](C)CN(c2ccc(C(=O)O)cc2)C3=O)cc(C)c1Cl` [I-166, (S)-4-(7-chloro-10-(3-(4-chloro-3,5-dimethylphenoxy)propyl)-4-methyl-1-oxo-6-(1,3,5-trimethyl-1H-pyrazol-4-yl)-3,4-dihydropyrazino[1,2-a]indol-2(1H)-yl)benzoic acid]: the Ki was below 50 nM. For `Cc1cc(OCCCc2c3n(c4c(-c5c(C)nn(C)c5C)c(Cl)ccc24)[C@@H](C)CN(c2cc(C(=O)O)cc4c2ccn4C)C3=O)cc(C)c1Cl` [I-167, (S)-4-(7-chloro-10-(3-(4-chloro-3,5-dimethylphenoxy)propyl)-4-methyl-1-oxo-6-(1,3,5-trimethyl-1H-pyrazol-4-yl)-3,4-dihydropyrazino[1,2-a]indol-2(1H)-yl)-1-methyl-1H-indole-6-carboxylic acid] the value was below 50 nM; for `Cc1cc(OCCCc2c3n(c4c(-c5c(C)nn(C)c5C)c(Cl)ccc24)[C@@H](C)CN(c2ccc(C(=O)O)c4ncccc24)C3=O)cc(C)c1Cl` [I-168, (S)-5-(7-chloro-10-(3-(4-chloro-3,5-dimethylphenoxy)propyl)-4-methyl-1-oxo-6-(1,3,5-trimethyl-1H-pyrazol-4-yl)-3,4-dihydropyrazino[1,2-a]indol-2(1H)-yl)quinoline-8-carboxylic acid], below 50 nM. The result for `Cc1cc(OCCCc2c3n(c4c(-c5c(C)nn(C)c5C)c(Cl)ccc24)[C@@H](C)CN(c2cc(C(=O)O)c4ccn(C)c4c2)C3=O)cc(C)c1Cl` [I-169, (S)-6-(7-chloro-10-(3-(4-chloro-3,5-dimethylphenoxy)propyl)-4-methyl-1-oxo-6-(1,3,5-trimethyl-1H-pyrazol-4-yl)-3,4-dihydropyrazino[1,2-a]indol-2(1H)-yl)-1-methyl-1H-indole-4-carboxylic acid] reads below 50 nM; that for `Cc1cc(OCCCc2c3n(c4c(-c5c(C)nn(C)c5C)c(Cl)ccc24)[C@H](C)CN(c2cc(C(=O)O)cc4c2ccn4C)C3=O)cc(C)c1Cl` [I-170, (R)-4-(7-chloro-10-(3-(4-chloro-3,5-dimethylphenoxy)propyl)-4-methyl-1-oxo-6-(1,3,5-trimethyl-1H-pyrazol-4-yl)-3,4-dihydropyrazino[1,2-a]indol-2(1H)-yl)-1-methyl-1H-indole-6-carboxylic acid], below 50 nM; that for `Cc1cc(OCCCc2c3n(c4c(-c5c(C)nn(C)c5C)c(Cl)ccc24)[C@H](C)CN(c2cccc(C(=O)O)c2)C3=O)cc(C)c1Cl` [I-171, (R)-3-(7-chloro-10-(3-(4-chloro-3,5-dimethylphenoxy)propyl)-4-methyl-1-oxo-6-(1,3,5-trimethyl-1H-pyrazol-4-yl)-3,4-dihydropyrazino[1,2-a]indol-2(1H)-yl)benzoic acid], below 50 nM. On to `Cc1cc(OCCCc2c3n(c4c(-c5c(C)nn(C)c5C)c(Cl)ccc24)[C@H](C)CN(c2ccc(C(=O)O)cc2)C3=O)cc(C)c1Cl` [I-172, (R)-4-(7-chloro-10-(3-(4-chloro-3,5-dimethylphenoxy)propyl)-4-methyl-1-oxo-6-(1,3,5-trimethyl-1H-pyrazol-4-yl)-3,4-dihydropyrazino[1,2-a]indol-2(1H)-yl)benzoic acid], for which the Ki was below 50 nM. `Cc1cc(OCCCc2c3n(c4c(-c5c(C)nn(C)c5C)c(Cl)ccc24)[C@H](C)CN(c2cc(C(=O)O)c4ccn(C)c4c2)C3=O)cc(C)c1Cl` [I-174, (R)-6-(7-chloro-10-(3-(4-chloro-3,5-dimethylphenoxy)propyl)-4-methyl-1-oxo-6-(1,3,5-trimethyl-1H-pyrazol-4-yl)-3,4-dihydropyrazino[1,2-a]indol-2(1H)-yl)-1-methyl-1H-indole-4-carboxylic acid]: the Ki was below 50 nM. For `Cc1cc(OCCCc2c3n(c4c(-c5c(C)nn(C)c5C)c(Cl)ccc24)CCN(c2ccc(C(=O)O)cc2)C3=O)cc(C)c1Cl` [I-176, 4-(7-chloro-10-(3-(4-chloro-3,5-dimethylphenoxy)propyl)-1-oxo-6-(1,3,5-trimethyl-1H-pyrazol-4-yl)-3,4-dihydropyrazino[1,2-a]indol-2(1H)-yl)benzoic acid], the Ki is below 50 nM. The result for `Cc1cc(OCCCc2c(C(=O)Nc3ccnc(C(=O)O)c3)[nH]c3c(-c4c(C)nn(C)c4C)c(Cl)ccc23)cc(C)c1Cl` [I-180, 4-(6-chloro-3-(3-(4-chloro-3,5-dimethylphenoxy)propyl)-7-(1,3,5-trimethyl-1H-pyrazol-4-yl)-1H-indole-2-carboxamido)picolinic acid] reads below 50 nM; that for `Cc1cc(OCCCc2c(C(=O)Nc3ccc(C(=O)O)nc3)[nH]c3c(-c4c(C)nn(C)c4C)c(Cl)ccc23)cc(C)c1Cl` [I-185, 5-(6-chloro-3-(3-(4-chloro-3,5-dimethylphenoxy)propyl)-7-(1,3,5-trimethyl-1H-pyrazol-4-yl)-1H-indole-2-carboxamido)picolinic acid], below 50 nM. For `Cc1cc(OCCCc2c(C(=O)Nc3cncc(C(=O)O)c3)[nH]c3c(-c4c(C)nn(C)c4C)cccc23)cc(C)c1Cl` [I-186, 5-(3-(3-(4-chloro-3,5-dimethylphenoxy)propyl)-7-(1,3,5-trimethyl-1H-pyrazol-4-yl)-1H-indole-2-carboxamido)nicotinic acid] the value was below 50 nM; for `Cc1cc(OCCCc2c(C(=O)N(C)c3cccc(C(=O)O)c3)[nH]c3c(-c4c(C)nn(C)c4C)c(Cl)ccc23)cc(C)c1Cl` [I-187, 3-(6-chloro-3-(3-(4-chloro-3,5-dimethylphenoxy)propyl)-N-methyl-7-(1,3,5-trimethyl-1H-pyrazol-4-yl)-1H-indole-2-carboxamido)benzoic acid], below 50 nM; for `Cc1cc(OCCCc2c(C(=O)Nc3cccc(C(=O)O)c3)[nH]c3c(-c4c(C)nn(CCN5CCOCC5)c4C)c(Cl)ccc23)cc(C)c1Cl` [I-191, 3-(6-chloro-3-(3-(4-chloro-3,5-dimethylphenoxy)propyl)-7-(3,5-dimethyl-1-(2-morpholinoethyl)-1H-pyrazol-4-yl)-1H-indole-2-carboxamido)benzoic acid], below 50 nM. On to `Cc1cc(OCCCc2c(C(=O)N3CCc4ccc(C(=O)O)cc43)[nH]c3c(-c4c(C)nn(C)c4C)c(Cl)ccc23)cc(C)c1Cl` [I-192, 1-(6-chloro-3-(3-(4-chloro-3,5-dimethylphenoxy)propyl)-7-(1,3,5-trimethyl-1H-pyrazol-4-yl)-1H-indole-2-carbonyl)indoline-6-carboxylic acid], for which the Ki is below 50 nM.
